Reference: ChEMBL document CHEMBL5537122, “Design, synthesis, and biological evaluation of 4-(2-fluorophenoxy)-7-methoxyquinazoline derivatives as dual EGFR/c-Met inhibitors for the treatment of NSCLC” (Eur J Med Chem, 2024)

What was measured:
A549 [1] = assay: Antiproliferative activity against human A549 cells overexpressing c-Met and EGFR assessed as reduction in cell viability incubated for 72 hrs by MTT assay; format: functional, cell-based; settings: A549, 72 h
NCI-H1975 [2] = assay: Antiproliferative activity against human NCI-H1975 cells overexpressing c-Met and EGFR assessed as reduction in cell viability incubated for 72 hrs by MTT assay; format: functional, cell-based; settings: NCI-H1975, 72 h
PC-9 = assay: Antiproliferative activity against human PC-9 cells overexpressing c-Met and EGFR assessed as reduction in cell viability incubated for 72 hrs by MTT assay; format: functional, cell-based; settings: PC-9, 72 h
[3] = biological target: Epidermal growth factor receptor (Homo sapiens, UniProt P00533, L858R); assay: biochemical
[4] = biological target: Hepatocyte growth factor receptor (Homo sapiens, UniProt P08581); assay: biochemical
Description: Inhibition of N-terminal GST tagged human recombinant c-Met (956 to end residues) expressed in baculovirus infected Sf9 cells using Poly (4:1 Glu, Tyr) as substrate incubated for 60 mins in presence of ATP by ADP-Glo luminescent assay

[5] = biological target: Epidermal growth factor receptor (Homo sapiens, UniProt P00533); assay: biochemical
Description: Inhibition of N-terminal GST tagged human recombinant EGFR (695 to end residues) expressed in baculovirus infected Sf9 cells using Poly (4:1 Glu, Tyr) as substrate incubated for 60 mins in presence of ATP by ADP-Glo luminescent assay

L02 [6] = assay: Induction in apoptosis in human L02 cells assessed as early apoptotic cells at 1 uM incubated for 24 hrs by Annexin V-FITC/Propidium Iodide staining based flow cytometry analysis (reference value: 0.26 %); format: toxicity, cell-based; settings: l02, 24 h
A549 [7] = assay: Induction of cell cycle arrest in human A549 cells overexpressing c-MET assessed as accumulation of cells at S phase at 1 uM incubated for 24 hrs by RNase A/propidium iodide staining based flow cytometric analysis (reference value: 37.87 %); format: functional
[8] = Hemolytic activity in sheep erythrocytes at 64 ug/ml incubated for 2 hr by UV spectrophotometer relative to control; format: toxicity, cell-based, Ovis aries, Erythrocyte; settings: at 64 µg/mL, read-out: Activity
NCI-H1975 [9] = assay: Induction in apoptosis in human NCI-H1975 cells assessed as viable cells at 1 uM incubated for 24 hrs by Annexin V-FITC/Propidium Iodide staining based flow cytometry analysis (reference value: 91.58 %); format: functional; settings: read-out: Activity
NCI-H1975 [10] = assay: Induction in apoptosis in human NCI-H1975 cells assessed as necrotic cells at 1 uM incubated for 24 hrs by Annexin V-FITC/Propidium Iodide staining based flow cytometry analysis (reference value: 1.42 %); format: functional
A549 [11] = assay: Induction in apoptosis in human A549 cells overexpressing c-MET assessed as late apoptotic cells at 1 uM incubated for 24 hrs by Annexin V-FITC/Propidium Iodide staining based flow cytometry analysis (reference value: 7.59 %); format: functional
A549 [12] = assay: Induction in apoptosis in human A549 cells overexpressing c-MET assessed as early apoptotic cells at 1 uM incubated for 24 hrs by Annexin V-FITC/Propidium Iodide staining based flow cytometry analysis (reference value: 7.27 %); format: functional
[13] = Induction in apoptosis in human L02 cells assessed as viable cells at 1 uM incubated for 24 hrs by Annexin V-FITC/Propidium Iodide staining based flow cytometry analysis (reference value: 92.75 %); format: toxicity, cell-based; settings: read-out: Activity
A549 [14] = assay: Induction in apoptosis in human A549 cells overexpressing c-MET assessed as viable cells at 1 uM incubated for 24 hrs by Annexin V-FITC/Propidium Iodide staining based flow cytometry analysis (reference value: 81.92 %); format: functional; settings: read-out: Activity
A549 [15] = assay: Induction of cell cycle arrest in human A549 cells overexpressing c-MET assessed as accumulation of cells at G1/G0 phase at 1 uM incubated for 24 hrs by RNase A/propidium iodide staining based flow cytometric analysis (reference value: 49.24 %); format: functional
L02 [16] = assay: Induction in apoptosis in human L02 cells assessed as necrotic cells at 1 uM incubated for 24 hrs by Annexin V-FITC/Propidium Iodide staining based flow cytometry analysis (reference value: 6.63 %); format: toxicity, cell-based; settings: l02, 24 h
A549 [17] = assay: Induction in apoptosis in human A549 cells overexpressing c-MET assessed as necrotic cells at 1 uM incubated for 24 hrs by Annexin V-FITC/Propidium Iodide staining based flow cytometry analysis (reference value: 3.22 %); format: functional
NCI-H1975 [18] = assay: Induction in apoptosis in human NCI-H1975 cells assessed as early apoptotic cells at 1 uM incubated for 24 hrs by Annexin V-FITC/Propidium Iodide staining based flow cytometry analysis (reference value: 2.54 %); format: functional
NCI-H1975 [19] = assay: Induction in apoptosis in human NCI-H1975 cells assessed as late apoptotic cells at 1 uM incubated for 24 hrs by Annexin V-FITC/Propidium Iodide staining based flow cytometry analysis (reference value: 4.46 %); format: functional
L02 [20] = assay: Induction in apoptosis in human L02 cells assessed as late apoptotic cells at 1 uM incubated for 24 hrs by Annexin V-FITC/Propidium Iodide staining based flow cytometry analysis (reference value: 0.36 %); format: toxicity, cell-based; settings: l02, 24 h
Homo sapiens = species on record: Homo sapiens; assay: Inhibition of EGFR T790/C797S mutant (unknown origin) at 10 uM relative to control

Chain of Hepatocyte growth factor receptor (P08581 whole entry): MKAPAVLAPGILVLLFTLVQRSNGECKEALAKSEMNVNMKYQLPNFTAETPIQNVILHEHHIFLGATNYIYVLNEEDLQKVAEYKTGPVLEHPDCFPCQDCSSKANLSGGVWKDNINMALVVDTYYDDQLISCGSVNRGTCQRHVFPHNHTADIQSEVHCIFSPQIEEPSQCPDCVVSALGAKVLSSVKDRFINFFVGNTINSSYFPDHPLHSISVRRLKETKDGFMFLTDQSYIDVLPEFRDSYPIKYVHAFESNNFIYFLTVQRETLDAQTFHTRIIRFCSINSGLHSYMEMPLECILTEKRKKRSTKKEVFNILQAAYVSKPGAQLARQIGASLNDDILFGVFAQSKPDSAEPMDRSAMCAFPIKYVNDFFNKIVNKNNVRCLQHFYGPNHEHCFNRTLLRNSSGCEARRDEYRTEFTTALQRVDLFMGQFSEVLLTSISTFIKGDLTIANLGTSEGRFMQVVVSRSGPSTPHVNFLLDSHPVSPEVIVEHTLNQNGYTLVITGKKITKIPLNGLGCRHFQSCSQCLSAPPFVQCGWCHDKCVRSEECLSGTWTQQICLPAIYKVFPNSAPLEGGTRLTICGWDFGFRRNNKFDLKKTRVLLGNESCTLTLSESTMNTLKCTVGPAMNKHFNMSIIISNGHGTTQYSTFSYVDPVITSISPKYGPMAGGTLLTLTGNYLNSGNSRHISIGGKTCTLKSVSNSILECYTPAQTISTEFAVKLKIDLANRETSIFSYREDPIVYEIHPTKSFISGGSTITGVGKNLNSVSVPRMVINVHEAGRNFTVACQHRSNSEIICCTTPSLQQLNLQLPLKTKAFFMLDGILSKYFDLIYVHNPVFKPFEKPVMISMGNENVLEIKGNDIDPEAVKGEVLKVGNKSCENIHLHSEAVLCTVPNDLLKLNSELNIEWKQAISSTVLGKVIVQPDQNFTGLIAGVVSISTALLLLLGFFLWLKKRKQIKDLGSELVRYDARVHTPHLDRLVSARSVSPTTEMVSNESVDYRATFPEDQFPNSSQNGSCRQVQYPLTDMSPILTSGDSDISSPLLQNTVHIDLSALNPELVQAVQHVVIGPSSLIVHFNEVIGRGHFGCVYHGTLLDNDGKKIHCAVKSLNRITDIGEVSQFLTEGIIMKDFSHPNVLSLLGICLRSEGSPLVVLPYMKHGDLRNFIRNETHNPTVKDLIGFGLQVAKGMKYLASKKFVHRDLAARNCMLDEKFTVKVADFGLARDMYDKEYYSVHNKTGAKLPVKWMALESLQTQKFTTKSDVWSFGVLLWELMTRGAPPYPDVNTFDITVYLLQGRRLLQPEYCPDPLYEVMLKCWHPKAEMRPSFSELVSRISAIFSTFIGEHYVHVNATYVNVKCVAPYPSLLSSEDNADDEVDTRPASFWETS
Chain of Epidermal growth factor receptor (Homo sapiens, UniProt P00533) (P00533 whole entry): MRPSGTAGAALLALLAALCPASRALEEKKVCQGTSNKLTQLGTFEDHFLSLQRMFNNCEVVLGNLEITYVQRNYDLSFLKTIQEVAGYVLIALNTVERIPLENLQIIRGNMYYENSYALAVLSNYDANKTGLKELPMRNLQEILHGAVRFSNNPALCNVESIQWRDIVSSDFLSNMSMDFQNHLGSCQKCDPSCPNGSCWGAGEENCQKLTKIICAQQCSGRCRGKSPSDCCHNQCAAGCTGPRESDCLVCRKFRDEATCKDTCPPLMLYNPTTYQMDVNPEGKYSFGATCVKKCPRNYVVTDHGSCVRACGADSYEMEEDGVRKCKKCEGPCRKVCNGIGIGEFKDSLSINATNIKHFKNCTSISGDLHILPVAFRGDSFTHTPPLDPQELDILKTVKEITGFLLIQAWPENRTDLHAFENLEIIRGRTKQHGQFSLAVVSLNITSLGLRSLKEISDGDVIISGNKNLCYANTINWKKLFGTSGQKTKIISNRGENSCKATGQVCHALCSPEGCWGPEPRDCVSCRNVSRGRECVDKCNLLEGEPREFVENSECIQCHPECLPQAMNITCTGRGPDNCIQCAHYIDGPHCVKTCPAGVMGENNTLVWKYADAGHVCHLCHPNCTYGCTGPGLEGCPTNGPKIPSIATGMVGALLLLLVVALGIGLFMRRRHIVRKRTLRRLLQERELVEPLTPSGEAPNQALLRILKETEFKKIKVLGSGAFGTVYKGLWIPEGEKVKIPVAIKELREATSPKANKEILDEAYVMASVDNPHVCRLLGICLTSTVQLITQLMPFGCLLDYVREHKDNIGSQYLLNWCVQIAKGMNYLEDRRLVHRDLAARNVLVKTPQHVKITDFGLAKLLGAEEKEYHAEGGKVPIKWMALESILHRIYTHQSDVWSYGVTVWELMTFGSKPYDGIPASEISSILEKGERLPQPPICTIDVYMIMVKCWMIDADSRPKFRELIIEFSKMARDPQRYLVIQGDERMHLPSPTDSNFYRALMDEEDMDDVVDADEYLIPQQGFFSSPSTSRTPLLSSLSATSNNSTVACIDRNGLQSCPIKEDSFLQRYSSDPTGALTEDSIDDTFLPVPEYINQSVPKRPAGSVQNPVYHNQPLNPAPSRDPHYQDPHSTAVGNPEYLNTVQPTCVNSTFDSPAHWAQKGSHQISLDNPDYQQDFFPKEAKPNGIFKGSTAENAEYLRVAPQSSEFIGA
Chain of Epidermal growth factor receptor (Homo sapiens, UniProt P00533, L858R) (P00533 25-1210 L858R limits assumed): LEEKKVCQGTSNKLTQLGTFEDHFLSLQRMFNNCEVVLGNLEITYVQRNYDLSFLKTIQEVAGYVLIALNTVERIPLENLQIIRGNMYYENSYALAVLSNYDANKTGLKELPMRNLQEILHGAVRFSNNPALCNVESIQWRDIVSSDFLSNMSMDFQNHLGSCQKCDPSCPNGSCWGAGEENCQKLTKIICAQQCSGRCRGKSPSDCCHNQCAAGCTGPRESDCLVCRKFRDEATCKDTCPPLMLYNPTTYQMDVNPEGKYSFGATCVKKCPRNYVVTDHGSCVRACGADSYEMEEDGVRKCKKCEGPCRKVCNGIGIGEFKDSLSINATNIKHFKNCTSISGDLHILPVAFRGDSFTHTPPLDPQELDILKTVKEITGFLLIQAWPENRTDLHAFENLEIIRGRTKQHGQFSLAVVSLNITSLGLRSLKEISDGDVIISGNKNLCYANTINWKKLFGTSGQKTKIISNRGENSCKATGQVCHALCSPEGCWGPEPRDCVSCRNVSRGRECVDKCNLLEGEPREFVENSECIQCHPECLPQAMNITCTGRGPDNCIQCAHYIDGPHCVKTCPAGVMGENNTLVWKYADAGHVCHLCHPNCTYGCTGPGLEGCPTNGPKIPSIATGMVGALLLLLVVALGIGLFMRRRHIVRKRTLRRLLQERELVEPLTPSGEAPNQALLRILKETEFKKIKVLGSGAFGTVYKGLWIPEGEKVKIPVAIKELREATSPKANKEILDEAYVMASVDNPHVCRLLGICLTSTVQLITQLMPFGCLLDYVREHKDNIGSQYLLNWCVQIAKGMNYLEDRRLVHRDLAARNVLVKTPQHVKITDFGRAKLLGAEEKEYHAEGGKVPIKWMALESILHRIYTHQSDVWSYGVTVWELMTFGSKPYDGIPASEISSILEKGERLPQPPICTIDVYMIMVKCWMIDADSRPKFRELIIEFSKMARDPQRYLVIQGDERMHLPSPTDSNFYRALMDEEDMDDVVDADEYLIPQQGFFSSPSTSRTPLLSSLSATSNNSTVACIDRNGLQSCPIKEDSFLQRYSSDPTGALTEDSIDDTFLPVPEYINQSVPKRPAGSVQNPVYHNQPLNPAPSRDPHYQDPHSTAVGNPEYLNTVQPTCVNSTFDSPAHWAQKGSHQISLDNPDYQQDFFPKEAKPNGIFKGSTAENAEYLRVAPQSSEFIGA

Structure (SMILES) | IC50 (A549 [1]) [µM] | IC50 (NCI-H1975 [2]) [µM] | IC50 (PC-9) [µM] | IC50 [3] [µM] | IC50 [4] [µM] | IC50 [5] [µM] | further results
CCC(=O)Nc1cc2c(Oc3ccc(NC(=O)CCCc4ccccc4)cc3F)ncnc2cc1OC | 7.03 | 3.98 | 2.6 | 2.27 | 0.444 | 1.44 | –
CCC(=O)Nc1cc2c(Oc3ccc(NC(=O)CCCc4ccc(F)cc4)cc3F)ncnc2cc1OC | 3.68 | 1.31 | 3.1 | 5.31 | 0.354 | 6.87 | –
CCCC(=O)Nc1cc2c(Oc3ccc(NC(=O)c4c(-c5c(Cl)cccc5Cl)noc4C)cc3F)cccc2cc1OC | > 50 | > 50 | > 50 | > 10 | 5.93 | > 10 | –
CCCCC(=O)Nc1cc2c(Oc3ccc(NC(=O)CCCc4ccc(C)cc4)cc3F)ncnc2cc1OC | 6.22 | > 50 | > 50 | > 10 | 2 | > 10 | –
C/C=C/C(=O)Nc1cc2c(Oc3ccc(NC(=O)CCCc4ccc(C)cc4)cc3F)ncnc2cc1OC | 4.56 | 9.49 | 8.4 | > 10 | 0.531 | 7.65 | –
CN(C)C/C=C/C(=O)Nc1cc2c(Nc3ccc(F)c(Cl)c3)ncnc2cc1O[C@H]1CCOC1 [AFATINIB] | – | – | – | – | – | – | Activity (L02 [6]): 0.19%; Activity (A549 [7]): 36.86%; hemolysis at 2 h, 64 ug/ml [8]: < 5%; viability at 1 µM (NCI-H1975 [9]): 89.7%; Activity (NCI-H1975 [10]): 1.88%; Activity (A549 [11]): 12.21%; Activity (A549 [12]): 9.36%; viability at 24 h, 1 µM [13]: 95.8%; viability at 1 µM (A549 [14]): 72.6%; Activity (A549 [15]): 52.24%; Activity (L02 [16]): 3.78%; Activity (A549 [17]): 5.8%; Activity (NCI-H1975 [18]): 2.21%; Activity (NCI-H1975 [19]): 6.17%; Activity (L02 [20]): 0.26%
C/C=C/C(=O)Nc1cc2c(Oc3ccc(NC(=O)n4c(=O)c(-c5ccccc5)c(C)n4C)cc3F)cccc2cc1OC | 2.7 | 9.42 | 8.88 | > 10 | 0.015 | 4.83 | –
C=CC(=O)Nc1cc2c(Oc3ccc(NC(=O)CCCc4ccc(C)cc4)cc3F)ncnc2cc1OC | 5.21 | 0.43 | 7.67 | 1.47 | 0.394 | 1.79 | –
CCC(=O)Nc1cc2c(Oc3ccc(NC(=O)n4c(=O)c(-c5ccccc5)c(C)n4C)cc3F)cccc2cc1OC | 8.42 | 22.2 | 1.06 | > 10 | 0.00102 | > 10 | –
C=CC(=O)Nc1cc2c(Oc3ccc(NC(=O)CCCc4ccccc4)cc3F)ncnc2cc1OC | 2.25 | 1.34 | 2.46 | 0.497 | 0.658 | 0.387 | –
C=CC(=O)Nc1cc2c(Oc3ccc(NC(=O)CCCc4ccc(OC)cc4)cc3F)ncnc2cc1OC | 3.12 | 2.1 | 19.4 | 0.693 | 0.348 | 0.567 | –
COc1cc2c(Oc3ccc(NC(=O)C4(C(=O)Nc5ccc(F)cc5)CC4)cc3F)ccnc2cc1OCCCN1CCOCC1 | – | – | – | – | – | – | inhibition (Homo sapiens): < 50%
C=CC(=O)Nc1cc2c(Oc3ccc(NC(=O)c4sc(-c5ccccc5)nc4C)cc3F)cccc2cc1OC | 1.94 | 2.4 | 2.33 | 0.518 | 0.0386 | 0.173 | –
COc1cc2ncnc(Oc3ccc(NC(=O)CCCc4ccccc4)cc3F)c2cc1NC(=O)CCC(C)C | > 50 | 13.7 | 33.7 | > 10 | 1.48 | > 10 | –
C=CC(=O)Nc1cc2c(Oc3ccc(NC(=O)NCCc4ccc(OC)c(OC)c4)cc3F)ncnc2cc1OC | 6.7 | 11.4 | 2.48 | 4.18 | 0.114 | 2.35 | –
C/C=C/C(=O)Nc1cc2c(Oc3ccc(NC(=O)c4c(-c5c(Cl)cccc5Cl)noc4C)cc3F)cccc2cc1OC | 19.5 | 17.2 | 6.12 | > 10 | 3.38 | > 10 | –
CCC(=O)Nc1cc2c(Oc3ccc(NC(=O)CCCc4ccsc4)cc3F)ncnc2cc1OC | 12.4 | > 50 | 4.03 | > 10 | 0.579 | > 10 | –
C=CC(=O)Nc1cc2c(Oc3ccc(NC(=O)CCCc4ccsc4)cc3F)ncnc2cc1OC | 5.14 | 4.72 | 0.99 | > 10 | 0.693 | > 10 | –
